Activity calls are given as the source filed them. The rule behind the calls is not given here.
Tested on: CCRIS mutagenicity, Ames/micronucleus/aberration tests
Assay: CCRIS mutagenicity studies
[1] = Test System: AMES SALMONELLA TYPHIMURIUM, Strain/Indicator: TA98, Metabolic Activation: NONE, Method: STANDARD PLATE
[2] = Test System: AMES SALMONELLA TYPHIMURIUM, Strain/Indicator: TA100, Metabolic Activation: NONE, Method: STANDARD PLATE
[3] = Test System: AMES SALMONELLA TYPHIMURIUM, Strain/Indicator: TA1535, Metabolic Activation: NONE, Method: STANDARD PLATE
[4] = Test System: AMES SALMONELLA TYPHIMURIUM, Strain/Indicator: TA1537, Metabolic Activation: NONE, Method: STANDARD PLATE
[5] = Test System: AMES SALMONELLA TYPHIMURIUM, Strain/Indicator: TA1538, Metabolic Activation: NONE, Method: STANDARD PLATE
[6] = Test System: AMES SALMONELLA TYPHIMURIUM, Strain/Indicator: TA98, Metabolic Activation: RAT, LIVER, S-9, AROCLOR 1254, Method: STANDARD PLATE
[7] = Test System: AMES SALMONELLA TYPHIMURIUM, Strain/Indicator: TA100, Metabolic Activation: RAT, LIVER, S-9, AROCLOR 1254, Method: STANDARD PLATE
[8] = Test System: AMES SALMONELLA TYPHIMURIUM, Strain/Indicator: TA98, Metabolic Activation: S-9, Method: STANDARD PLATE
[9] = Test System: AMES SALMONELLA TYPHIMURIUM, Strain/Indicator: TA100, Metabolic Activation: S-9, Method: STANDARD PLATE
[10] = Test System: AMES SALMONELLA TYPHIMURIUM, Strain/Indicator: TA1535, Metabolic Activation: S-9, Method: STANDARD PLATE
[11] = Test System: AMES SALMONELLA TYPHIMURIUM, Strain/Indicator: TA1537, Metabolic Activation: S-9, Method: STANDARD PLATE

## Cc1cc2c(cc1C)-c1cc3ccccc3c3cccc-2c13
Test System: AMES SALMONELLA TYPHIMURIUM, Strain/Indicator: TA100, Metabolic Activation: RAT, LIVER, S-9, AROCLOR 1254
  mutagenic call: active; positive

## Cc1cn2c([N+](=O)[O-])c(-c3ccc([N+](=O)[O-])cc3)nc2s1
[1]
  mutagenic call: active; positive
[2]
  mutagenic call: active; positive
[3]
  mutagenic call: active; positive
[4]
  mutagenic call: active; positive
[5]
  mutagenic call: active; positive

## CN1CCC=C2c3nc(N)sc3CCC21 (stereo unspecified)
[1]
  mutagenic call: inactive; negative
[6]
  mutagenic call: active; positive
[2]
  mutagenic call: inactive; negative
[7]
  mutagenic call: active; positive
[3]
  mutagenic call: inactive; negative
Test System: AMES SALMONELLA TYPHIMURIUM, Strain/Indicator: TA1535, Metabolic Activation: RAT, LIVER, S-9, AROCLOR 1254, Method: STANDARD PLATE
  mutagenic call: inactive; negative
[4]
  mutagenic call: inactive; negative
Test System: AMES SALMONELLA TYPHIMURIUM, Strain/Indicator: TA1537, Metabolic Activation: RAT, LIVER, S-9, AROCLOR 1254, Method: STANDARD PLATE
  mutagenic call: inactive; negative
[5]
  mutagenic call: inactive; negative

## O=NN1CCSC1CO (stereo unspecified)
Test System: AMES SALMONELLA TYPHIMURIUM, Strain/Indicator: TA98, Metabolic Activation: NONE, Method: PREINCUBATION
  mutagenic call: inactive; negative
[1]
  mutagenic call: inactive; negative
Test System: AMES SALMONELLA TYPHIMURIUM, Strain/Indicator: TA98, Metabolic Activation: RAT, LIVER, S-9, AROCLOR 1254, Method: PREINCUBATION
  mutagenic call: inactive; negative
[6]
  mutagenic call: inactive; negative
Test System: AMES SALMONELLA TYPHIMURIUM, Strain/Indicator: TA100, Metabolic Activation: NONE, Method: PREINCUBATION
  mutagenic call: active; positive
[2]
  mutagenic call: active; positive
Test System: AMES SALMONELLA TYPHIMURIUM, Strain/Indicator: TA100, Metabolic Activation: RAT, LIVER, S-9, AROCLOR 1254, Method: PREINCUBATION
  mutagenic call: active; positive
[7]
  mutagenic call: active; positive

## Oc1ccc2sc3ccccc3c2c1
Test System: CHINESE HAMSTER OVARY, Strain/Indicator: CHO-K1-BH4 (HGPRT)/6-THIOGUANINE, Metabolic Activation: RAT, LIVER, S-9, AROCLOR (4%)
  mutagenic call: active; positive

## CCCCCNc1snc2ccccc12
[1]
  mutagenic call: inactive; negative
[8]
  mutagenic call: inactive; negative
[2]
  mutagenic call: inactive; negative
[9]
  mutagenic call: inactive; negative
[3]
  mutagenic call: inactive; negative
[10]
  mutagenic call: inactive; negative
[4]
  mutagenic call: inactive; negative
[11]
  mutagenic call: inactive; negative

## Cc1ccccc1OP(=O)(Oc1ccccc1C)Oc1ccccc1C
[2]
  mutagenic call: inactive; negative
Test System: AMES SALMONELLA TYPHIMURIUM, Strain/Indicator: TA100, Metabolic Activation: RAT, LIVER, MICROSOMES, Method: STANDARD PLATE
  mutagenic call: active; positive

## O=CC(Cl)Cl
Test System: CHINESE HAMSTER V-79, Strain/Indicator: V-79/OUABAIN, Metabolic Activation: NONE
  mutagenic call: inactive; negative
Test System: UDS HUMAN CELLS, Strain/Indicator: EUE LINE/THY INCORP, Metabolic Activation: NONE, Method: AUTORADIOGRAPHY
  mutagenic call: inactive; negative

## NC(=O)N/N=C/c1ccco1
Test System: E. COLI, Strain/Indicator: WP2 UVRA, Metabolic Activation: NONE, Method: SPOT
  mutagenic call: active; positive

## Cc1cccc(OCC(O)CNC(C)(C)C)c1C (stereo unspecified)
[1]
  mutagenic call: inactive; negative
[8]
  mutagenic call: inactive; negative
[2]
  mutagenic call: inactive; negative
[9]
  mutagenic call: inactive; negative
[3]
  mutagenic call: inactive; negative
[10]
  mutagenic call: inactive; negative
[4]
  mutagenic call: inactive; negative
[11]
  mutagenic call: inactive; negative
[5]
  mutagenic call: inactive; negative
Test System: AMES SALMONELLA TYPHIMURIUM, Strain/Indicator: TA1538, Metabolic Activation: S-9, Method: STANDARD PLATE
  mutagenic call: inactive; negative
Test System: E. COLI WP2, Strain/Indicator: WP2 UVRA, Metabolic Activation: NONE, Method: STANDARD PLATE
  mutagenic call: inactive; negative
Test System: E. COLI WP2, Strain/Indicator: WP2 UVRA, Metabolic Activation: S-9, Method: STANDARD PLATE
  mutagenic call: inactive; negative

## C=CCN(CC=C)CCN(CC=C)CC=C.[Cl-].[Cl-].[Pd+2]
Test System: AMES SALMONELLA TYPHIMURIUM, Strain/Indicator: TA92, Metabolic Activation: NONE, Method: STANDARD PLATE
  mutagenic call: inactive; negative
[1]
  mutagenic call: inactive; negative
[2]
  mutagenic call: inactive; negative
Test System: AMES SALMONELLA TYPHIMURIUM, Strain/Indicator: TA2410, Metabolic Activation: NONE, Method: STANDARD PLATE
  mutagenic call: inactive; negative
Test System: E. COLI, Strain/Indicator: TM6, Metabolic Activation: NONE, Method: STANDARD PLATE
  mutagenic call: active; positive
Test System: E. COLI, Strain/Indicator: TM9, Metabolic Activation: NONE, Method: STANDARD PLATE
  mutagenic call: active; positive

## O=c1c2cccc3ccc4cccc1c4c32
[7]
  mutagenic call: active; positive
